The target of one test is USP1-UAF1 (Homo sapiens, UniProt O94782). Kind of test: Ubiquitin Rhodamine assay for USP1-UAF1 activity. Type of test: biochemical. How it is done:
Certain compounds of the disclosure were assessed for USP1-UAF1 activity in a Ubiquitin Rhodamine assay as described in Example 135.

For test [1], the system named is MDA-MB-436 (BRCA1 mutant) cell line. Put plainly: Viability assay in BRCA1 mutant cell line MDA-MB-436. The format is cell-based. The settings on record: Homo sapiens, MDA-MB-436, viability, BRCA1 mutant MDA-MB-436; read-out: MDA-MB-436 rel IC50. An excerpt: (§1) Table 1 also indicates IC50 values in a viability assay for a non-isogenic pair of BRCA1 mutant (column 5—MDA-MB-436) and BRCA1 WT (column 6—HCC1954) cell lines. These values indicate the effect of treatment with compound on cell survival.

Test [2] concerns HCC1954 (BRCA1 WT) cell line. Kind of test: Viability assay in BRCA1 WT cell line HCC1954. The format is cell-based. The settings on record: read-out: HCC 1954 IC50 rel IC50.
Source text: as §1

Where two headings read alike, the source gives them in different places.

In general, IC50 refers to the concentration at which inhibition is half-maximal.

Sequence of USP1-UAF1 (O94782 whole entry): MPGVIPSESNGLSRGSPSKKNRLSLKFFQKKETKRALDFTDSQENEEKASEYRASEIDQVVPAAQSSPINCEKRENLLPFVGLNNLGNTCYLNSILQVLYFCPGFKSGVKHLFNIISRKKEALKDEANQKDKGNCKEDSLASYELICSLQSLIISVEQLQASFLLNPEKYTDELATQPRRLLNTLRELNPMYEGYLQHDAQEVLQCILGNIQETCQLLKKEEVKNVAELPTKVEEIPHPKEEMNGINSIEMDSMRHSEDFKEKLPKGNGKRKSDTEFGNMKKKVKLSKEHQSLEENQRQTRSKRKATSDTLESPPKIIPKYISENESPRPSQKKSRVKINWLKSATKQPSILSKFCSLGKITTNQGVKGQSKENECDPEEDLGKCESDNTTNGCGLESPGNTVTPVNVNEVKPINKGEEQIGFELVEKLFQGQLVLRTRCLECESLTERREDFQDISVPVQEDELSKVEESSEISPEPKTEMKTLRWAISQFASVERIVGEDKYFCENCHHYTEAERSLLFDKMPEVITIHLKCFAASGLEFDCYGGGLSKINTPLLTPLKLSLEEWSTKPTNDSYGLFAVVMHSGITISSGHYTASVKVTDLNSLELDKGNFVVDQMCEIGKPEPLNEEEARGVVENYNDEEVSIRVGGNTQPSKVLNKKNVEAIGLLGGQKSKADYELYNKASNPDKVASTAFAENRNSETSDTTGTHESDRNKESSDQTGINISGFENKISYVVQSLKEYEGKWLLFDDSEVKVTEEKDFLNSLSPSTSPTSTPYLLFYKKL
Sequence of USP1-UAF1 (Q8TAF3 whole entry partner): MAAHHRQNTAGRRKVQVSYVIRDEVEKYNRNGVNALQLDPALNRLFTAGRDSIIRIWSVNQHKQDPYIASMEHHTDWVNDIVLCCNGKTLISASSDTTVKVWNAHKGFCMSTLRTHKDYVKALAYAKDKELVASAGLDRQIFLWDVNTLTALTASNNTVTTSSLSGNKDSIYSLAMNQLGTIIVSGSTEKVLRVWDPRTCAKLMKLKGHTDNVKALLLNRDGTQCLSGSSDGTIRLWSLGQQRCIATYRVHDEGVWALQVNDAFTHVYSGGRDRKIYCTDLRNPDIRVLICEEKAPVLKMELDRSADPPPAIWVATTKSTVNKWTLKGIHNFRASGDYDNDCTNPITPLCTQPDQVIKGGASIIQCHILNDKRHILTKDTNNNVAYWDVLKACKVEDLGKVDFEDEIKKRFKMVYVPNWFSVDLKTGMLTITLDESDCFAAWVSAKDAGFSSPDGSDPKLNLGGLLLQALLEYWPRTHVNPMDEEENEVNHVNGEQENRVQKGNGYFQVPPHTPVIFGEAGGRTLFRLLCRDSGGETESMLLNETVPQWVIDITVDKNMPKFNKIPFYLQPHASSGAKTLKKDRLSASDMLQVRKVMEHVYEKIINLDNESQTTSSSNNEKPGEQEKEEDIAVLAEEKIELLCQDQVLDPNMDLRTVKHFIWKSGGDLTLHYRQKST

For `Cn1cc(C(F)(F)F)nc1-c1ccc(Cc2c[nH]c3cnc(-c4cccnc4N4CCC45CCOC5)nc23)cc1` (centres unmarked) [Compound 32], the IC50 at USP1-UAF1 fell in the range of 0.1 to 10 µM; in test [1] it was 0.25 to 10 µM; in test [2] (Homo sapiens) it was 0.25 to 10 µM.
For `Cn1cc(C(F)(F)F)nc1-c1ccc(Cc2c[nH]c3cnc(-c4cccnc4N4CCC45COC5)nc23)cc1` [Compound 77], the figures for the IC50 (against USP1-UAF1; in test [1]; in test [2] (Homo sapiens)) were 0.1 to 10 µM, 0.25 to 10 µM and at least 10 µM, respectively.
The matching figures for `CC(C)c1ccccc1-c1ncc2c(n1)c(C(O)c1ccc(-c3nc(C(F)(F)F)cn3C)cc1)cn2Cc1ccccc1` (centres unmarked) [Compound 80]: 0.1 to 10 µM, 0.25 to 10 µM and at least 10 µM.
`Cn1cc(C(F)(F)F)nc1-c1ccc(Cc2c[nH]c3cnc(-c4c(OCF)ncnc4C4CC4)nc23)cc1` [Compound 173, 2-[4-cyclopropyl-6-(fluoromethoxy)pyrimidin-5-yl]-7-[[4-[1-methyl-4-(trifluoromethyl)imidazol-2-yl]phenyl]methyl]-5H-pyrrolo[3,2-d]pyrimidine]: the IC50 was under 0.03 µM against USP1-UAF1, under 0.1 µM in test [1] and at least 10 µM in test [2] (Homo sapiens).
The matching figures for `CN(Cc1ccccc1-c1ncc2[nH]cc(Cc3ccc(-c4nc(C(F)(F)F)cn4C)cc3)c2n1)CC(F)(F)F` [Compound 61]: 0.03 to 0.1 µM, 0.25 to 10 µM and 0.25 to 10 µM.
Turning to `Cn1cc(C(F)(F)F)nc1-c1ccc(Cc2c[nH]c3cnc(-c4ccccc4CO)nc23)cc1` [Compound 72], the figures for the IC50 (on USP1-UAF1; in test [1]; in test [2] (Homo sapiens)) were 0.1 to 10 µM, 0.25 to 10 µM and at least 10 µM, respectively.
For `COc1ncnc(C2CC2)c1-c1ncc2[nH]cc(C(C)c3ccc(-c4nc(C(F)(F)F)cn4C)cc3)c2n1` (single isomer, unassigned) [Compound 192], the IC50 in test [2] lay in the range of 0.25 to 10 µM.
As to `CN(C)Cc1ccccc1-c1ncc2[nH]cc(C(O)c3ccc(-c4nc(C(F)(F)F)cn4C)cc3)c2n1` (centres unmarked) [Compound 3], the IC50 (against USP1-UAF1; in test [1]; in test [2] (Homo sapiens)) was at least 10 µM each time.
In the case of `CN1CC(n2cc(C(F)(F)F)nc2-c2ccc(C(O)c3c[nH]c4cnc(-c5cccnc5OC(F)F)nc34)cc2)C1` (centres unmarked) [Compound 38, [2-[2-(difluoromethoxy)-3-pyridyl]-5H-pyrrolo[3,2-d]pyrimidin-7-yl]-[4-[1-(1-methylazetidin-3-yl)-4-(trifluoromethyl)imidazol-2-yl]phenyl]methanol], the IC50 (against USP1-UAF1; in test [1]; in test [2] (Homo sapiens)) was at least 10 µM throughout.
Consider `CC(C)Oc1ncccc1-c1ncc2[nH]cc(Cc3ccc(-c4nc(C(F)(F)F)cn4C)cc3)c2n1` [Compound 55, 2-isopropoxy-3-[7-([4-[1-methyl-4-(trifluoromethyl)imidazol-2-yl]phenyl]methyl)-5H-pyrrolo[3,2-d]pyrimidin-2-yl]pyridine], for which the IC50 against USP1-UAF1 is under 0.03 µM; in test [1] it was under 0.1 µM; in test [2] (Homo sapiens), at least 10 µM.
With `COc1ncnc(C2CC2)c1-c1ncc2c(n1)c(Cc1ccc(-c3nc(C(F)(F)F)cn3C)cc1)cn2C1CC1` [Compound 170, 5-cyclopropyl-2-(4-cyclopropyl-6-methoxy-pyrimidin-5-yl)-7-[[4-[1-methyl-4-(trifluoromethyl)imidazol-2-yl]phenyl]methyl]pyrrolo[3,2-d]pyrimidine], the IC50 on USP1-UAF1 was under 0.03 µM.
For `Cn1cc(C(F)(F)F)nc1-c1ccc(C(O)c2c[nH]c3cnc(-c4cccnc4C4CC4)nc23)cc1` (centres unmarked) [Compound 40], the IC50 at USP1-UAF1 is 0.1 to 10 µM; in test [1] it was 0.25 to 10 µM; in test [2] (Homo sapiens), at least 10 µM.
On to `COc1ncnc(C2CC2)c1-c1ncc2[nH]cc(C(c3ccc(-c4nc(C(F)(F)F)cn4C)cc3)C(C)C)c2n1` (centres unmarked) [Compound 145], for which the IC50 against USP1-UAF1 was 0.03 to 0.1 µM; in test [1], 0.1 to 0.25 µM; in test [2] (Homo sapiens) it was 0.25 to 10 µM.
In the case of `CN(c1ccc(-c2nc(C(F)(F)F)cn2C)cc1)c1c[nH]c2cnc(-c3ccccc3C3CC3)nc12` [Compound 13, 2-(2-cyclopropylphenyl)-N-methyl-N-[4-[1-methyl-4-(trifluoromethyl)imidazol-2-yl]phenyl]-5H-pyrrolo[3,2-d]pyrimidin-7-amine], the IC50 at USP1-UAF1 was 0.1 to 10 µM; in test [1] it was 0.25 to 10 µM; in test [2] (Homo sapiens), at least 10 µM.
For `CN(C)Cc1ccccc1-c1ncc2[nH]cc(Cc3ccc(-c4nc(C(F)(F)F)cn4C)cc3)c2n1` [Compound 9] the same measures were at least 10 µM, at least 10 µM and at least 10 µM.
The matching figures for `CC(C)c1ccccc1-c1ncc2[nH]cc(CN3CCN(c4nc(C(F)(F)F)cn4C)CC3)c2n1` [Compound 35, 2-(2-isopropylphenyl)-7-[[4-[1-methyl-4-(trifluoromethyl)imidazol-2-yl]piperazin-1-yl]methyl]-5H-pyrrolo[3,2-d]pyrimidine]: 0.1 to 10 µM, 0.25 to 10 µM and 0.25 to 10 µM.
Regarding `Cn1cc(C(F)(F)F)nc1-c1ccc(Cc2c[nH]c3cnc(-c4cccnc4O)nc23)cc1` [Compound 56, 3-[7-([4-[1-methyl-4-(trifluoromethyl)imidazol-2-yl]phenyl]methyl)-5H-pyrrolo[3,2-d]pyrimidin-2-yl]pyridin-2-ol], the IC50 (on USP1-UAF1; in test [1]; in test [2] (Homo sapiens)) was at least 10 µM in each case.
Turning to `Cn1cc(C(F)(F)F)nc1-c1ccc([S+]([O-])c2c[nH]c3cnc(-c4ccccc4C(F)(F)F)nc23)cc1` (centres unmarked) [Compound 36, 7-[4-[1-methyl-4-(trifluoromethyl)imidazol-2-yl]phenyl]sulfinyl-2-[2-(trifluoromethyl)phenyl]-5H-pyrrolo[3,2-d]pyrimidine], the IC50 against USP1-UAF1 lay in the range of 0.1 to 10 µM.
Take `COc1ncnc(C2CC2)c1-c1ncc2[nH]cc(C(O)c3ccc(-c4nc(C(F)(F)F)cn4C4CN(C)C4)cc3)c2n1` (centres unmarked) [Compound 7, (2-(4-cyclopropyl-6-methoxypyrimidin-5-yl)-5H-pyrrolo[3,2-d]pyrimidin-7-yl)(4-(1-(1-methylazetidin-3-yl)-4-(trifluoromethyl)-1H-imidazol-2-yl)phenyl)methanol]: the IC50 (at USP1-UAF1; in test [1]; in test [2] (Homo sapiens)) was at least 10 µM throughout.
Consider `Cn1cc(C(F)(F)F)nc1-c1ccc(C(=O)c2c[nH]c3cnc(-c4cccnc4C4CC4)cc23)cc1` [Compound 53], for which the IC50 (at USP1-UAF1; in test [1]; in test [2] (Homo sapiens)) was at least 10 µM each time.
`Cn1cc(C(F)(F)F)nc1-c1ccc(Cc2c[nH]c3cnc(-c4ccccc4C(C)(C)O)nc23)cc1` [Compound 157, 2-(2-(7-(4-(1-methyl-4-(trifluoromethyl)-1H-imidazol-2-yl)benzyl)-5H-pyrrolo[3,2-d]pyrimidin-2-yl)phenyl)propan-2-ol] registered an IC50 at USP1-UAF1 of under 0.03 µM.
Still for that read-out and setting: for `Cn1cc(C(F)(F)F)nc1-c1ccc(Cc2n[nH]c3cnc(-c4c(OCF)ncnc4C4CC4)nc23)cc1` [Compound 169] the value was under 0.03 µM.
On the same count and under the same terms, with `CO[C@@H](c1ccc(-c2nc(C(F)(F)F)cn2C)cc1)c1c[nH]c2cnc(-c3c(OC(F)F)ncnc3C3CC3)nc12` (single isomer, unassigned) [Compound 127] the figure was 0.1 to 10 µM.
Same read-out and setting: with `Cn1cc(C(F)(F)F)nc1-c1ccc(Cc2c[nH]c3cnc(-c4cccnc4N4CC(F)C4)nc23)cc1` [Compound 68] the figure was 0.1 to 10 µM; with `COc1ncnc(C2CC2)c1-c1nc(CN)c2[nH]cc(Cc3ccc(-c4nc(C(F)(F)F)cn4C)cc3)c2n1` [Compound 201], 0.1 to 10 µM; with `Cn1cc(C(F)(F)F)nc1-c1ccc(S(=O)(=O)c2c[nH]c3cnc(-c4ccccc4C(F)(F)F)nc23)cc1` [Compound 46, 7-[4-[1-methyl-4-(trifluoromethyl)imidazol-2-yl]phenyl]sulfonyl-2-[2-(trifluoromethyl)phenyl]-5H-pyrrolo[3,2-d]pyrimidine], 0.1 to 10 µM.
Take `COc1ncnc(C2CC2)c1-c1ncc2[nH]nc(Cc3ccc(-c4nc(C(F)(F)F)cn4C(C)C)cc3)c2n1` [Compound 16, 5-(4-cyclopropyl-6-methoxy-pyrimidin-5-yl)-3-[[4-[1-isopropyl-4-(trifluoromethyl)imidazol-2-yl]phenyl]methyl]-1H-pyrazolo[4,3-d]pyrimidine]: the IC50 was under 0.1 µM in test [1] and at least 10 µM in test [2] (Homo sapiens).
In turn, `CO[C@H](c1ccc(-c2nc(C(F)(F)F)cn2C)cc1)c1c[nH]c2cnc(-c3c(OC(F)F)ncnc3C3CC3)nc12` (single isomer, unassigned) [Compound 149] came in with an IC50 against USP1-UAF1 of under 0.03 µM.
The same measure, in the same setting: for `COc1ncnc(C(C)C)c1-c1ncc2[nH]nc(Cc3ccc(-c4nc(C(F)(F)F)cn4C)cc3)c2n1` [Compound 112] the value was under 0.03 µM; for `COc1ncnc(C2CC2)c1-c1ncc2[nH]cc(C(O)c3ccc(-c4nc(C(F)(F)F)cn4C4CC4)cc3)c2n1` (centres unmarked) [Compound 19, [2-(4-cyclopropyl-6-methoxy-pyrimidin-5-yl)-5H-pyrrolo[3,2-d]pyrimidin-7-yl]-[4-[1-cyclopropyl-4-(trifluoromethyl)imidazol-2-yl]phenyl]methanol], 0.1 to 10 µM; for `CCn1c(C(F)(F)F)cnc1-c1ccc(Cc2c[nH]c3cnc(-c4c(OC)ncnc4C4CC4)nc23)cc1` [Compound 70], 0.1 to 10 µM.
Same read-out and setting: with `COc1ncnc(C(C)(C)C)c1-c1ncc2[nH]nc(Cc3ccc(-c4nc(C(F)(F)F)cn4C)cc3)c2n1` [Compound 158] the figure was under 0.03 µM; with `COc1ncnc(C2CC2)c1-c1ncc2[nH]cc(C(O)c3ccc(-c4nc(C#N)cn4C)cc3)c2n1` (centres unmarked) [Compound 37, 2-[4-[[2-(4-cyclopropyl-6-methoxy-pyrimidin-5-yl)-5H-pyrrolo[3,2-d]pyrimidin-7-yl]-hydroxy-methyl]phenyl]-1-methyl-imidazole-4-carbonitrile], at least 10 µM.
